Values belong to the compound of their own block, whether it stands above or below them.
Columns and labels:
Assay type in all cases: in vitro ADME
[1] = target: T1, CYP2C9 (Homo sapiens, UniProt P11712); assay: Chemical inhibition of CRV431 loss in human liver microsomes: CYP2C9; design: tissue Sekisui Xenotech, Kansas City, MO, USA; host or cells: human liver microsomes; conditions: pH 7.4, probe CRV431 (1 μM; loss of parent), metabolism-dependent inhibitor, 30 min pre-incubation
Procedure: (§1) This experiment was carried out manually to verify the role of individual CYP enzymes in the metabolism of CRV431. […] Incubations were conducted at 37 ± 1 °C in 0.2 mL incubation mixtures (final volume) containing potassium phosphate buffer (50 mM, pH 7.4), MgCl2 (3 mM) and EDTA (1 mM, pH 7.4), with an NADPH-generating system as cofactor. The NADPH-generating system consisted of NADP (1 mM, pH 7.4), glucose-6-phosphate (5 mM, pH 7.4), and glucose-6-phosphate dehydrogenase (1 Unit/mL). CRV431 was added to the incubation mixtures in DMSO (0.1% v/v). For incubations with direct-acting chemical inhibitors, reactions were initiated by the addition of cofactor, and stopped by the addition of an equal volume of acetonitrile stop reagent. For incubations with metabolism-dependent chemical inhibitors, 30 min pre-incubations of human liver microsomes and the inhibitor were initiated by the addition of the cofactor. CRV431 was then added to the mixture to be incubated for 15 min. Reactions were stopped by the addition of an equal volume of acetonitrile stop reagent. Samples were analyzed by LC-MS/MS to quantify the amount of unchanged CRV431. Control samples with no CYP inhibitor present were conducted in the presence of the solvent used to dissolve the CYP inhibitor (“solvent control”).
(§2) Samples were analyzed by LC-MS/MS on a SCIEX 4000 QTrap mass spectrometer (Sciex, Rewood City, CA, USA). […]

[2] = test system: CYP2C19; assay: Chemical inhibition of CRV431 loss in human liver microsomes: CYP2C19; conditions: pH 7.4, probe CRV431 (1 μM; loss of parent), metabolism-dependent inhibitor (also inhibits CYP3A4/5), 30 min pre-incubation
Procedure: as §1, §2

[3] = test system: other recombinant human CYP enzymes; assay: Metabolism by the other recombinant human CYP enzymes evaluated; conditions: CRV431 1 and 10 μM; the CYP enzymes of the panel not given; 15 min
Procedure: (§3) This experiment was carried out to determine the cytochrome P450 (CYP) enzymes capable of metabolizing CRV431. […] Reactions were initiated by the addition of cofactor, and were terminated at zero and 15 min by the addition of 175 μL ice-cold methanol.
(§4) The electrospray voltage was set at 4500 volts.

[4] = target: T2, recombinant human CYP2C19 (Homo sapiens, UniProt P33261); assay: Metabolism by recombinant human CYP enzymes: CYP2C19; conditions: CRV431 1 μM; 50 pmol CYP/mL; 15 min
T2 construct: purchased Sekisui Xenotech, Kansas City, MO, USA
T2 sequence (P33261 whole entry): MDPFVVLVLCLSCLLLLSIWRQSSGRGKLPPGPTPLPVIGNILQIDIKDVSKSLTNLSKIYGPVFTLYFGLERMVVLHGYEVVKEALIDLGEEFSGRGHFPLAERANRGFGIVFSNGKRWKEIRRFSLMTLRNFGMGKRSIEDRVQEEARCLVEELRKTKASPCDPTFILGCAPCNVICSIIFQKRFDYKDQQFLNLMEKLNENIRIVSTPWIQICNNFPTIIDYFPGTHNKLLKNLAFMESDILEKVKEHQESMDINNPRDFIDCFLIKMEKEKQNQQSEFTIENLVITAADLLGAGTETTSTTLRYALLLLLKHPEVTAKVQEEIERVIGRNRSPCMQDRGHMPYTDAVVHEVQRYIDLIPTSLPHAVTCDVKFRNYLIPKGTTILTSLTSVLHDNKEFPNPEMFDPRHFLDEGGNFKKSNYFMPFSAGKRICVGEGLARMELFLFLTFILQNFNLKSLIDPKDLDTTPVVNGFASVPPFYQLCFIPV
Procedure: as §3, §4

[5] = CRV431 metabolite profile in human liver microsomes (ESI-LCMS); conditions: pH 7.4; for Amount of CRV431 remaining: microsomes, 1 μg/mL
Procedure: (§5) Human and rat liver microsomes were obtained from Xenotech (Kansas City, MO, USA) and stored at −80 °C. Monkey liver microsomes were obtained from Thermo Fisher Scientific (Waltham, MA, USA) and stored at −80 °C. Preliminary microsomal biotransformation experiments were run with 0.1, 1, and 10 μg/mL CRV431. CRV431 biotransformation was minimal at 0.1 μg/mL, while both 1 and 10 μg/mL CRV431 gave sufficient metabolite quantity and identical metabolite profiles. Additionally, preliminary experiments were conducted with human liver microsome (HLM) levels ranging for 0.125 to 1 mg. Subsequent microsomal biotransformation experiments were conducted using 0.5 mg of microsome per assay.
(§6) Thawed microsome 20 mg/mL stocks were diluted 32× into cold buffer (Phosphate pH 7.4 + MgCl2 3 mM + EDTA 1 mM) to 0.625 mg/mL, and stored on ice. For experiments with CRV431, 2 μL of […] stocks were added to cold 1-mL microsomes (500× dilution) to generate the 1 μg/mL samples. […]. Samples were mixed by vortexing, and 160 μL was transferred into tubes containing 40 μL buffer on ice. Metabolic activity was stopped by the addition of ice-cold methanol (200 μL), followed by vortexing for an additional 10 s; these were zero-time samples. The extraction was completed by waiting 5 min, vortexing samples again for 5 s, then spinning the samples for 10 min at 3300 rpm at 4 °C in a pre-cooled microcentrifuge. The supernatant (325 μL) was transferred to new tubes and stored at −80 °C.
(§7) For time course experiments, metabolism was initiated by adding 40 μL of NADPH Regenerating System (5 mg/mL NADP, 6.5 mg/mL G6P and 5 units/mL of G6P dehydrogenase). The sample was vortexed for 2 s and placed in a 37 °C bath. For CRV431 experiments at time points 10 min, 20 min, 40 min, and 80 min, 200 μL of ice-cold methanol was added to the 200 μL microsome reactions, and extracted as described above. Samples were stored at −80 °C. For verapamil experiments at 15 min, 200 μL of ice-cold methanol was added to the 200 μL microsome reactions and extracted as described above. Samples were stored at −80 °C.
(§8) Microsome extracts were removed from the freezer (−80 °C) and left to thaw at room temperature. Aliquots (50 μL) were removed and placed in 2 mL plastic Eppendorf microcentrifuge tubes, to which 200 μL of a 0.2 M ZnSO4 solution (0.2 M ZnSO4 in water, plus HPLC grade methanol, 1:4, v/v) was added as protein precipitating reagent. The tubes were capped and vortexed for 10 s, and then left on the benchtop for 10 min. Samples were then centrifuged at 3300 rpm for 10 min. The clear supernatant (≈150 μL) was transferred to an appropriately labeled LC-MS autosampler vial and capped.
(§9) Samples were analyzed by electrospray ionization liquid chromatography mass spectrometry (ESI-LCMS) on an Agilent HP 1100 LC-MS. Samples were placed in an autosampler maintained at 5 °C. CRV431 microsomal extracts (20 μL) were injected onto a Zorbax SB-C18 reverse phase HPLC column (1.8 μm Rapid Resolution HT Cartridge, 4.6 × 30 mm (Agilent, Santa Clara, CA, USA) maintained at 75 °C, and the components were separated using an acetonitrile–water gradient system (Table 2). The sodium adducts of CRV431 (1326 m/z) and metabolites were analyzed by mass spectrometry (MS) using electrospray ionization (ESI) in positive ion mode. The ESI–MS was optimized with N2 gas temperature set at 350 °C and drying gas at […]. The fragmentor and capillary voltages were set at 260 and 4000 volts, respectively. The nebulizer pressure was set at 40 psig. For the initial analysis of the microsomal extracts, the ESI–MS was run in scan mode (1260–1460 m/z) to capture all ion signals present. Subsequently, the microsomal extracts were run in selected ion mode (SIM), with the ions identified in the scans.

[6] = target: T3, recombinant human CYP1A2 (Homo sapiens, UniProt P05177); assay: Metabolism by recombinant human CYP enzymes: CYP1A2; conditions: CRV431 1 μM; 50 pmol CYP/mL; 15 min
T3 construct: purchased Sekisui Xenotech, Kansas City, MO, USA
T3 sequence (P05177 1-516): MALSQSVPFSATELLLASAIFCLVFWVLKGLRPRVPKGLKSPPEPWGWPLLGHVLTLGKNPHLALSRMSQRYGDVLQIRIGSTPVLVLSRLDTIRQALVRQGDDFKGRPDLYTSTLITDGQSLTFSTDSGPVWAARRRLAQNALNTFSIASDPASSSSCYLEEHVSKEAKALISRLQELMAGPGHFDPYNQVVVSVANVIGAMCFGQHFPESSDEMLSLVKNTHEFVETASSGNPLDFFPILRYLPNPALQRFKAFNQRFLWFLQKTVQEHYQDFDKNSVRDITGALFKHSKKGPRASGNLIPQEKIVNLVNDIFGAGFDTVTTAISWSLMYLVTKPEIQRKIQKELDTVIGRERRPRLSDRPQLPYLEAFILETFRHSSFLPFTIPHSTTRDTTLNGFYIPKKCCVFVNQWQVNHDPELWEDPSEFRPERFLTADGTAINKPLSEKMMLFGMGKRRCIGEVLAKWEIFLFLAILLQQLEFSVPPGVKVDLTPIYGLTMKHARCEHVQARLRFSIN
Procedure: as §3, §4

[7] = Recombinant CYP panel: incubation with control bactosomes; conditions: CRV431 1 μM, 15 min
Procedure: as §3, §4

[8] = target: T4, recombinant human CYP3A4 (Homo sapiens, UniProt P08684); assay: Metabolism by recombinant human CYP enzymes: CYP3A4; conditions: 50 pmol CYP/mL, 15 min
T4 construct: purchased Sekisui Xenotech, Kansas City, MO, USA
T4 sequence (P08684 whole entry): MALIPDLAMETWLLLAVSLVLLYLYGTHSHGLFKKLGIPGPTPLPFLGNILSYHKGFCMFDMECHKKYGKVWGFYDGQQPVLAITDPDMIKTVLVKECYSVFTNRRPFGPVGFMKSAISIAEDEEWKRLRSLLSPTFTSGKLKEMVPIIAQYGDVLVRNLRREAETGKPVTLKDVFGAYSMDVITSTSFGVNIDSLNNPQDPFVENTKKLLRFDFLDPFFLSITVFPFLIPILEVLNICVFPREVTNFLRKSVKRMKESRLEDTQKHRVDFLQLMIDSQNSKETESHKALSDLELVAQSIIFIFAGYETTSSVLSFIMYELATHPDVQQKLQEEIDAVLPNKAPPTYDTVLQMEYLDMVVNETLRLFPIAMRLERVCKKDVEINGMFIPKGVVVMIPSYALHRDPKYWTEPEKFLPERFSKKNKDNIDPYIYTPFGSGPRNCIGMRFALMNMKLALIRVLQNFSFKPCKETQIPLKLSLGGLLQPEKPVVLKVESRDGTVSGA
Procedure: as §3, §4

[9] = Metabolic stability of CRV431 in human liver microsomes
Procedure: Incubations of CRV431 (1 and 10 μM) with pooled human liver microsomes (1 mg protein/mL) were conducted for 30 min. […] CRV431 was added to incubations in DMSO (0.1% v/v). Additional incubations of CRV431 (1 and 10 μM) with human liver microsomes (1 mg protein/mL) were carried out at 0, 15, 30, 60, and 120 min. Reactions were initiated by the addition of the NADPH-generating system, and were stopped by the addition of 175 μL of acetonitrile. The samples were centrifuged (920× g for 10 min at 10 °C), and the supernatant fractions were analyzed by LC-MS/MS (Sciex, Redwood City, CA, USA) to quantify the amount of unchanged CRV431 based on a calibration curve (ranging from 0.01 to 15 μM). Zero-time, zero-cofactor (no NADPH), zero-substrate, and zero-protein served as blanks.
as §4

[10] = CRV431 metabolite profile in rat liver microsomes (ESI-LCMS); conditions: Sprague-Dawley, pH 7.4
Procedure: as §5, §6, §7, §8, §9

[11] = target: T5, recombinant human CYP2D6 (Homo sapiens, UniProt P10635); assay: Metabolism by recombinant human CYP enzymes: CYP2D6; conditions: CRV431 1 μM; 50 pmol CYP/mL; 15 min
T5 construct: purchased Sekisui Xenotech, Kansas City, MO, USA
T5 sequence (P10635 whole entry): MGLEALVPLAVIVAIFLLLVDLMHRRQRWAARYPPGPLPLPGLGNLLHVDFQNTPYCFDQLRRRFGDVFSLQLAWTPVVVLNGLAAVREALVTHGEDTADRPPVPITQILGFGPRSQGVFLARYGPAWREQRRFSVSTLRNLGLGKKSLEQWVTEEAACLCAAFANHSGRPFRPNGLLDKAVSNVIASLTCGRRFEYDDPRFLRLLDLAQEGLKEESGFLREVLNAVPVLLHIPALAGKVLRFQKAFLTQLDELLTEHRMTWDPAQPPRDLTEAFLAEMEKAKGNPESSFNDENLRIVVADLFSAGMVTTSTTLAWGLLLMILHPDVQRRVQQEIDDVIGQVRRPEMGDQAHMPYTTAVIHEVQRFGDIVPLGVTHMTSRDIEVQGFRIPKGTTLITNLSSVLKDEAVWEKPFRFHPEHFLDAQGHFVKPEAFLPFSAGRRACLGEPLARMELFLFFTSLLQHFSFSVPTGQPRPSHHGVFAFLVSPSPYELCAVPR
Procedure: as §3, §4

[12] = CRV431 metabolite profile in monkey liver microsomes (ESI-LCMS)
Procedure: as §5, §6, §7, §8, §9

[13] = target: T1, CYP2C9; assay: Metabolism by recombinant human CYP enzymes: CYP2C9; design: purchased Sekisui Xenotech, Kansas City, MO, USA; conditions: 50 pmol CYP/mL, 15 min
Procedure: as §3, §4

T1 sequence (P11712 whole entry): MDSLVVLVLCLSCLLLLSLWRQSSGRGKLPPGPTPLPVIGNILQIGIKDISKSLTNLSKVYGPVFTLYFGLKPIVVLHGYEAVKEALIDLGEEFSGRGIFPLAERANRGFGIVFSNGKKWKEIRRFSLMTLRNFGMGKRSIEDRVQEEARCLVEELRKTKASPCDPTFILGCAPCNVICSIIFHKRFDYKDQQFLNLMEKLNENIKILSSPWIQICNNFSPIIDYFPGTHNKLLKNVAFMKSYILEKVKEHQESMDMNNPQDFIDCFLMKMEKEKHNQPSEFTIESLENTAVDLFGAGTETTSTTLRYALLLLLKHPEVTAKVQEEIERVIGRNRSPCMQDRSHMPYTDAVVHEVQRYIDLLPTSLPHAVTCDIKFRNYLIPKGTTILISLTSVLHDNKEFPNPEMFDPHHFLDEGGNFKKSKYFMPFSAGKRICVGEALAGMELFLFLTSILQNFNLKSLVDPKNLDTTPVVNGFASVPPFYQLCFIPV

SMILES: O=C(O)COc1ccc(C(=O)c2cccs2)c(Cl)c1Cl [tienilic acid]
inhibition at 15 min [1]: 7%

inhibition at 15 min [2]: 37%
SMILES: COc1ccc2nc([S@@+]([O-])Cc3ncc(C)c(OC)c3C)[nH]c2c1 [esomeprazole]

SMILES: CCC1NC(=O)C([C@H](O)[C@H](C)CCCCCCNC(C)=O)N(C)C(=O)C(C(C)C)N(C)C(=O)[C@H](CC(C)C)N(C)C(=O)[C@H](CC(C)C)N(C)C(=O)C(C)NC(=O)[C@H](C)NC(=O)C(CC(C)C)N(C)C(=O)[C@H](C(C)C)NC(=O)[C@H](CC(C)C)N(C)C(=O)C(C)N(C)C1=O (stereo in doubt) [CRV431]
Substrate loss [3]: less than 15%
Disappearance of CRV431 [4]: 17%
% of Total Drug-Related Mass Versus Time (minutes) 0 min ([5]; 0 min, 1 ug/mL): 96.4%
% of Total Drug-Related Mass Versus Time (minutes) 10 min ([5]; 10 min, 1 ug/mL): 57.0%
% of Total Drug-Related Mass Versus Time (minutes) 20 min ([5]; 20 min, 1 ug/mL): 27.5%
% of Total Drug-Related Mass Versus Time (minutes) 40 min ([5]; 40 min, 1 ug/mL): 10.4%
% of Total Drug-Related Mass Versus Time (minutes) 80 min ([5]; 80 min, 1 ug/mL): 4.0%
Amount of CRV431 remaining ([5]; 10 min): 71.8%
Amount of CRV431 remaining ([5]; 80 min): 5.3%
Disappearance of CRV431 [6]: 19%
Loss of CRV431 [7]: 24%
Disappearance of CRV431 ([8]; CRV431 1 μM): 64%
Loss of CRV431 ([8]; CRV431 10 μM): 41%
Biotransformation of CRV431 ([9]; 1 and 10 μM, 1 mg protein/mL, after 60 min incubation, with NADPH-generating system): nearly complete
Biotransformation of CRV431 ([9]; absence of microsomal proteins and the NADPH-generating system, same time period): no biotransformation
% of Total Drug-Related Mass Versus Time (minutes) 0 min ([10]; 0 min, 1 ug/mL): 96.2%
% of Total Drug-Related Mass Versus Time (minutes) 10 min ([10]; 10 min, 1 ug/mL): 95.4%
% of Total Drug-Related Mass Versus Time (minutes) 20 min ([10]; 20 min, 1 ug/mL): 94.6%
% of Total Drug-Related Mass Versus Time (minutes) 40 min ([10]; 40 min, 1 ug/mL): 93.6%
% of Total Drug-Related Mass Versus Time (minutes) 80 min ([10]; 80 min, 1 ug/mL): 92.3%
Amount of CRV431 remaining ([10]; microsomes, 80 min, 1 μg/mL): 92.3%
Disappearance of CRV431 [11]: 32%
Rate of CRV431 metabolism in monkey liver microsomes, greater than in human microsomes ([12]; monkey relative to human liver microsomes): at least five-fold
% of Total Drug-Related Mass Versus Time (minutes) 0 min ([12]; monkey, 0 min, 1 ug/mL, pH 7.4): 96.3%
% of Total Drug-Related Mass Versus Time (minutes) 2.5 min ([12]; monkey, 2.5 min, 1 ug/mL, pH 7.4): 59.4%
% of Total Drug-Related Mass Versus Time (minutes) 5 min ([12]; monkey, 5 min, 1 ug/mL, pH 7.4): 21.5%
% of Total Drug-Related Mass Versus Time (minutes) 10 min ([12]; monkey, 10 min, 1 ug/mL, pH 7.4): 12.3%
% of Total Drug-Related Mass Versus Time (minutes) 20 min ([12]; monkey, 20 min, 1 ug/mL, pH 7.4): 4.3%
% of Total Drug-Related Mass Versus Time (minutes) 40 min ([12]; monkey, 40 min, 1 ug/mL, pH 7.4): 6.6%
% of Total Drug-Related Mass Versus Time (minutes) 80 min ([12]; monkey, 80 min, 1 ug/mL, pH 7.4): 6.7%
Amount of CRV431 remaining ([12]; monkey, microsomes, 10 min, 1 μg/mL, pH 7.4): 13.2%
Disappearance of CRV431 ([13]; CRV431 1 μM): 27%
Loss of CRV431 ([13]; CRV431 10 μM): 27%

From publication PMC5750657, “In Vitro Phase I Metabolism of CRV431, a Novel Oral Drug Candidate for Chronic Hepatitis B” (Pharmaceutics, 2017)
